What all share (format): cell-based
For experiment [1], the target named is T1, human Nav1.5 channels stably expressed in HEK 293 cells (Homo sapiens, UniProt Q14524).
T1 construct: expressed in transfected cells
Description: IonWorks Quattro automated patch-clamp, sodium current, inactivated state block. The conditions noted are these: selectivity over Nav1.5. On the procedure:
(§1) Compounds were tested on human Nav1.7 and Nav1.5 channels stably expressed in HEK 293 cells. […] Cells were sealed on a planar substrate using the Population Patch Plate (PPC) technology. Electrical access was obtained using both nystatin and amphotericin. A double-pulse protocol was used for the determination of IC50 values for inactivated state block. Nav1.7 and Nav1.5 expressing cells were voltage clamped at −100 mV and −110 mV, respectively. A depolarizing prepulse to −10 mV (Nav1.7) or −30 mV (Nav1.5) for 1000 ms followed by a 10 ms repolarization to −100 mV (Nav1.7) or −110 mV (Nav1.5) was given to generate fractional channel inactivation of ˜50%, followed by a 10 ms test pulse to −10 mV (Nav1.7) or −30 mV (Nav1.5) to measure peak current in control conditions and after compound addition. The following recording solutions were used (mM). External: 150 NaCl, 2 CaCl2, 5 KCl, 1 Mg Cl2, 10 HEPES, 12 Dextrose; internal: 120 CsF, 30 CsCl, 10 EGTA, 5 HEPES, 5 NaF, 2 MgCl2.
(§2) For all electrophysiology experiments, offline analysis was used to correct for current rundown and to determine percent inhibition as a function of drug concentration. IC50 values were determined by fitting to the Hill equation.
A general note: The patch-clamp technique gives a direct electrical read-out from membranes.

The target of experiment [2] is T2, human Nav1.7 channels stably expressed in HEK 293 cells (Homo sapiens, UniProt Q15858).
T2 construct: expressed in transfected cells
The description is as above. The conditions noted are these: read-out: potency for the Nav 1.7 sodium ion channel (as measured by IonWorks). Here is the method:
as §1, §2

Experiment [3] addresses T1, human Nav1.5 channels stably expressed in HEK 293 cells. Description: PatchXpress 7000 automated patch-clamp, sodium current. As to conditions: selectivity over Nav1.5. A digest of the protocol:
(§3)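 IC50 values came from Hill-equation fits of rundown-corrected inhibition. PatchXpress recordings at 22° C held cells 20 mV negative to V0.5 inact and applied 10 Hz trains of 30 ms steps to −20 mV (Nav1.7) or an 8000 ms prepulse 7 mV positive to V0.5 inact. […]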

The target in experiment [4] is T2, human Nav1.7 channels stably expressed in HEK 293 cells. The description is as above. The conditions noted are these: 22° C., read-out: potency for the Nav 1.7 sodium ion channel (as measured by PatchXpress). A digest of the protocol: as §3

T1 sequence (Q14524 whole entry): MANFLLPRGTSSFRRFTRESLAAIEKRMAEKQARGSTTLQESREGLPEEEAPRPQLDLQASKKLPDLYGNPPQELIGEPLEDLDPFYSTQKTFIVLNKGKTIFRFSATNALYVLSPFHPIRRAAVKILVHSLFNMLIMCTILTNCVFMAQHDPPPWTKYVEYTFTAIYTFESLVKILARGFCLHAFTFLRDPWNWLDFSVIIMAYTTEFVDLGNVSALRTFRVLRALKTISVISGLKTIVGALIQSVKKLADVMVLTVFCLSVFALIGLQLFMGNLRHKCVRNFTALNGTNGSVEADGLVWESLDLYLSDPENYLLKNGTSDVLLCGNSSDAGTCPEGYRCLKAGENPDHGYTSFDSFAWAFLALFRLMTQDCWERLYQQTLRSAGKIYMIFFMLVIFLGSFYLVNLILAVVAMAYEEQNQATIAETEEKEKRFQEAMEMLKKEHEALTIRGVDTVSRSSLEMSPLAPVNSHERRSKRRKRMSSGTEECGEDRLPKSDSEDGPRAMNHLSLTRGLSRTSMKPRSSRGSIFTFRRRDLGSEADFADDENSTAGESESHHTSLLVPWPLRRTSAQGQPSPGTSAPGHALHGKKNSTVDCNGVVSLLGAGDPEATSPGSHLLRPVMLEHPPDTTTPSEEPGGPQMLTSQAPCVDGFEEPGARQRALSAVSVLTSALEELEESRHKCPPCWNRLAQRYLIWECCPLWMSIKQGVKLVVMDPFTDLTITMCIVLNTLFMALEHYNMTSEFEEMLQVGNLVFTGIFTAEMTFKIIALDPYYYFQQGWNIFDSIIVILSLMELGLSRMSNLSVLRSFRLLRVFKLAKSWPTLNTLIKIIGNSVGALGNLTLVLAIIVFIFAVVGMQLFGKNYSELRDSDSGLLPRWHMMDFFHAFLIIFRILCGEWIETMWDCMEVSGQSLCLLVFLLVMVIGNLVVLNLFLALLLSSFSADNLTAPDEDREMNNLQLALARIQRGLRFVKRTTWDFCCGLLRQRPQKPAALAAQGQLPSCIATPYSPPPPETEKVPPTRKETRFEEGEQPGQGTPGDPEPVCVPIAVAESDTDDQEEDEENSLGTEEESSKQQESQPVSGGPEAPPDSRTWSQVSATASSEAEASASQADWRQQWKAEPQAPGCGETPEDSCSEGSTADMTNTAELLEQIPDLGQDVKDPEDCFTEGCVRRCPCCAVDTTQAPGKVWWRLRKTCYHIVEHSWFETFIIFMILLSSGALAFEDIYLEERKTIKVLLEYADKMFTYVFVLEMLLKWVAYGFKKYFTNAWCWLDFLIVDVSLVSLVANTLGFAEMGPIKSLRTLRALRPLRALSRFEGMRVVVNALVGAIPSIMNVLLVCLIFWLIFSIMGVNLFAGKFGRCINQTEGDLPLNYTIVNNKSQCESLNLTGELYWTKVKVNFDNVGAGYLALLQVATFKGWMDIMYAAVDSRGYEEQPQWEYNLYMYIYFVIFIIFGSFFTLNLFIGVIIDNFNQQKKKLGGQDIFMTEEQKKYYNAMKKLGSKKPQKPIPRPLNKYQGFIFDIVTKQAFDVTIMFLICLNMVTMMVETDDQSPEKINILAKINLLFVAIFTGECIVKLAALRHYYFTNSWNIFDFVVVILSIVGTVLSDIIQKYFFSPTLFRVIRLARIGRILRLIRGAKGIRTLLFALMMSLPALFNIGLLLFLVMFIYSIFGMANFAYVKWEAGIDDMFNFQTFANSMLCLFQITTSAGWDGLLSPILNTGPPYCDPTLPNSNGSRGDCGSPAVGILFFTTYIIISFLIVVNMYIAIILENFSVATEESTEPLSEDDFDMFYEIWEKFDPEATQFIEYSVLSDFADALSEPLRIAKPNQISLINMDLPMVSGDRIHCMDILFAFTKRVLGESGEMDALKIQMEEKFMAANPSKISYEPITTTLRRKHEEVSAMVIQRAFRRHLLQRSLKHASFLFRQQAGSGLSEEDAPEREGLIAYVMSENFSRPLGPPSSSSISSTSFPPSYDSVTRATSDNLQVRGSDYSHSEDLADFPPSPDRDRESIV
T2 sequence (Q15858 whole entry): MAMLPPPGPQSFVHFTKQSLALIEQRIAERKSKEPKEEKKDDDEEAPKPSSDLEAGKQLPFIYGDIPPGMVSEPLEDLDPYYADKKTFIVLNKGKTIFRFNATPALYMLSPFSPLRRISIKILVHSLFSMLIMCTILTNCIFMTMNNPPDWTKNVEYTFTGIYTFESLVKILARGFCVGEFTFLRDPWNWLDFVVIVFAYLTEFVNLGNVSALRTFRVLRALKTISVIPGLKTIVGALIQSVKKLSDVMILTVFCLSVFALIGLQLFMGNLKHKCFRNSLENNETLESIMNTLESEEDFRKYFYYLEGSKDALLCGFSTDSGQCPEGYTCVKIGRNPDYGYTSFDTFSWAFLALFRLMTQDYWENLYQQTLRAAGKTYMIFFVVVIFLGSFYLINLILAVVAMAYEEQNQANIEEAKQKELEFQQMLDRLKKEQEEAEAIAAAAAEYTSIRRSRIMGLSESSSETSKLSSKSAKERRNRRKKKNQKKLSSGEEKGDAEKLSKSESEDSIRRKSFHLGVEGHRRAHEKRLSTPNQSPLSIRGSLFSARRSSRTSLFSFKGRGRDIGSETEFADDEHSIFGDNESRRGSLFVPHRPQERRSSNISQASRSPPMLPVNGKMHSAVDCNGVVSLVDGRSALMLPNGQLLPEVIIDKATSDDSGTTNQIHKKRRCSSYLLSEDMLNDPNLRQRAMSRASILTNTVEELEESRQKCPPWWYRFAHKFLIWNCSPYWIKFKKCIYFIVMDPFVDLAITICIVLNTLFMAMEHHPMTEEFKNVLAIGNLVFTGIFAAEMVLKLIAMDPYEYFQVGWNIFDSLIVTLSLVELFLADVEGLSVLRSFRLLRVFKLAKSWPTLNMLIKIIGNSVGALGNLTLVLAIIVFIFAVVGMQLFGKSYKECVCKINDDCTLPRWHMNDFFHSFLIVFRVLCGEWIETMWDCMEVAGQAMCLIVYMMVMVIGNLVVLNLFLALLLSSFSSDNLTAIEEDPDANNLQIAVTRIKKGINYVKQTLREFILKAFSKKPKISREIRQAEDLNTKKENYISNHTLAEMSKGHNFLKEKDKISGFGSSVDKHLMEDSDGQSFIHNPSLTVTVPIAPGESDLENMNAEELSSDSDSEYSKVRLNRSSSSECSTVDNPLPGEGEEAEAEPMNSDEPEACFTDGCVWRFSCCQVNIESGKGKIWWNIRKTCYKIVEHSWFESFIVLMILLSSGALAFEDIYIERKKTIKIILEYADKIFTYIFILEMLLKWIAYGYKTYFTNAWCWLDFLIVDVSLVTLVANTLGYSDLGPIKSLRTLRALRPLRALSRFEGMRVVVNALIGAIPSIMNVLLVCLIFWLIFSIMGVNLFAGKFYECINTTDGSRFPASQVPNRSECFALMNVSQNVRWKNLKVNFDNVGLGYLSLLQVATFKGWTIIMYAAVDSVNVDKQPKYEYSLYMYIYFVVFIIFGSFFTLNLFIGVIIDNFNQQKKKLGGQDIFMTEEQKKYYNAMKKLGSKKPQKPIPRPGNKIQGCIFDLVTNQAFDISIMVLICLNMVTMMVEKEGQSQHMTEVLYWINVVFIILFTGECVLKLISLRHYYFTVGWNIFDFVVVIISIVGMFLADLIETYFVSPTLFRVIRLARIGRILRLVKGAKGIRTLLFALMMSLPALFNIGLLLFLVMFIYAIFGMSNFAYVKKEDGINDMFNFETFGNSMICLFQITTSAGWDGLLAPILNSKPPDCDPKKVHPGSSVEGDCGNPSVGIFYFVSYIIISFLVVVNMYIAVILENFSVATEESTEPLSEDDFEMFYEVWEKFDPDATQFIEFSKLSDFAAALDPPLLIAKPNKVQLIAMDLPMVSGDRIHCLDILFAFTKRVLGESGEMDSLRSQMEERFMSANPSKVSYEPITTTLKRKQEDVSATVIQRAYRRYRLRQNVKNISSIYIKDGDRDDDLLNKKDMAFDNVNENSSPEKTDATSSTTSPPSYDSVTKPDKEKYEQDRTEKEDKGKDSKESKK

Regarding `C[C@H](c1cccc2c1CNCC2)n1c(=O)oc2cc(S(=O)(=O)Nc3ncns3)c(F)cc21` [Compound 13-2, 5-Fluoro-2-oxo-3-[(1R)-1-(1,2,3,4-tetrahydroisoquinolin-8-yl)ethyl]-N-(1,2,4-thiadiazol-5-yl)-2,3-dihydro-1,3-benzoxazole-6-sulfonamide], the “ratio of Nav 1.5:Nav 1.7 potency, determined by IonWorks measurement” value (from here on “ratio … by IonWorks measurement”) in experiment [1] was 2604. Further, the IC50 in experiment [2] was 4 nM; in experiment [4], 26 nM. Besides, in experiment [3], the “ratio of Nav 1.5:Nav 1.7 potency, determined by PatchXpress measurement” value (“ratio … by PatchXpress measurement” below) was 357.

As to `C[C@@H](c1ccccc1)n1c(=O)oc2cc(S(=O)(=O)Nc3ncns3)c(F)cc21` [Compound 13-4, 5-fluoro-2-oxo-3-[(1S)-1-phenylethyl]-N-1,2,4-thiadiazol-5-yl-2,3-dihydro-1,3-benzoxazole-6-sulfonamide], the “ratio … by IonWorks measurement” value in experiment [1] amounted to 78. Moreover, the IC50 was found to be 157 nM in experiment [2] and 167 nM in experiment [4]. Moreover, in experiment [3], the “ratio … by PatchXpress measurement” value stood at 27.

With `O=c1oc2cc(S(=O)(=O)Nc3ncns3)ccc2n1Cc1ccccc1Cl` [Compound 1-12, 3-(2-chlorobenzyl)-2-oxo-N-1,2,4-thiadiazol-5-yl-2,3-dihydro-1,3-benzoxazole-6-sulfonamide], in experiment [1], the “ratio … by IonWorks measurement” value was determined as 67. Also, the IC50 in experiment [2] and in experiment [4] was 408 nM in each case. For the same compound, the “ratio … by PatchXpress measurement” value in experiment [3] is listed as 67.

On to `O=c1oc2cc(S(=O)(=O)Nc3ncns3)c(F)cc2n1C(c1ccccc1)C1CC1` (centres unmarked) [Compound 13-5, 3-[cyclopropyl(phenyl)methyl]-5-fluoro-2-oxo-N-1,2,4-thiadiazol-5-yl-2,3-dihydro-1,3-benzoxazole-6-sulfonamide], for which the “ratio … by IonWorks measurement” value in experiment [1] was more than 300. The IC50 in experiment [2] worked out at 110 nM; in experiment [4] it was 145 nM. In addition, the “ratio … by PatchXpress measurement” value in experiment [3] is more than 30.

Consider `O=c1oc2cc(S(=O)(=O)Nc3ncns3)ccc2n1Cc1ccc(Cl)cc1` [Compound 1-13, 3-(4-chlorobenzyl)-2-oxo-N-1,2,4-thiadiazol-5-yl-2,3-dihydro-1,3-benzoxazole-6-sulfonamide], for which the “ratio … by IonWorks measurement” value in experiment [1] is reported as more than 34. The IC50 in experiment [2] and in experiment [4] was 976 nM throughout. Besides, in experiment [3], the “ratio … by PatchXpress measurement” value is listed as more than 34.

On to `CC(c1cccc2c1CNCC2)n1c(=O)oc2cc(S(=O)(=O)Nc3ncns3)ccc21` (centres unmarked) [Compound 4-14, 2-oxo-3-[1-(1,2,3,4-tetrahydroisoquinolin-8-yl)ethyl]-N-1,2,4-thiadiazol-5-yl-2,3-dihydro-1,3-benzoxazole-6-sulfonamide], for which, in experiment [1], the “ratio … by IonWorks measurement” value is recorded as more than 1338. The IC50 in experiment [2] amounted to 25 nM; in experiment [4], 61 nM. Moreover, the “ratio … by PatchXpress measurement” value in experiment [3] was more than 495.

`O=c1oc2cc(S(=O)(=O)Nc3ncns3)ccc2n1Cc1ccccc1-c1cccc2c1CCNC2` [Compound 3-8, 2-oxo-3-[2-(1,2,3,4-tetrahydroisoquinolin-5-yl)benzyl]-N-1,2,4-thiadiazol-5-yl-2,3-dihydro-1,3-benzoxazole-6-sulfonamide]: the “ratio … by IonWorks measurement” value in experiment [1] is on record as more than 103. Further, the IC50 amounted to 321 nM in experiment [2] and 278 nM in experiment [4]. In experiment [3], the “ratio … by PatchXpress measurement” value is more than 108.

As for `CC(c1ccccc1)n1c(=O)oc2cc(S(=O)(=O)Nc3ncns3)ccc21` (centres unmarked) [Compound 4-6, 2-oxo-3-(1-phenylethyl)-N-1,2,4-thiadiazol-5-yl-2,3-dihydro-1,3-benzoxazole-6-sulfonamide], the “ratio … by IonWorks measurement” value in experiment [1] is more than 35. Further, the IC50 came to 954 nM in experiment [2] and 342 nM in experiment [4]. In experiment [3], the “ratio … by PatchXpress measurement” value is more than 88.

As to `O=c1oc2cc(S(=O)(=O)Nc3ncns3)ccc2n1Cc1ccccc1C1=CC2CCC(C1)N2` (centres unmarked) [Compound 3-7, 3-[2-(8-azabicyclo[3.2.1]oct-2-en-3-yl)benzyl]-2-oxo-N-1,2,4-thiadiazol-5-yl-2,3-dihydro-1,3-benzoxazole-6-sulfonamide], the “ratio … by IonWorks measurement” value in experiment [1] was more than 113. Besides, the IC50 in experiment [2] came out at 292 nM; in experiment [4] it was 137 nM. Besides, the “ratio … by PatchXpress measurement” value in experiment [3] is recorded as more than 219.

As for `C[C@H](c1cccc2c1CNCC2)n1c(=O)oc2cc(S(=O)(=O)Nc3ncns3)ccc21` [Compound 4-4, 2-Oxo-3-[(1R)-1-(1,2,3,4-tetrahydroisoquinolin-8-yl)ethyl]-N-(1,2,4-thiadiazol-5-yl)-2,3-dihydro-1,3-benzoxazole-6-sulfonamide], the “ratio … by IonWorks measurement” value in experiment [1] was 4494. Besides, the IC50 in experiment [2] worked out at 5 nM; in experiment [4], 26 nM. Further, the “ratio … by PatchXpress measurement” value in experiment [3] is more than 1153.

On to `O=c1oc2cc(S(=O)(=O)Nc3ncns3)ccc2n1Cc1cccc2c1CN(CC1CC1)CC2` [Compound 6-4, 3-{[2-(cyclopropylmethyl)-1,2,3,4-tetrahydroisoquinolin-8-yl]methyl}-2-oxo-N-1,2,4-thiadiazol-5-yl-2,3-dihydro-1,3-benzoxazole-6-sulfonamide], for which the “ratio … by IonWorks measurement” value in experiment [1] is 54. In addition, the IC50 in experiment [2] amounted to 464 nM; in experiment [4], 626 nM. Further, in experiment [3], the “ratio … by PatchXpress measurement” value is 37.

`O=c1oc2cc(S(=O)(=O)Nc3ncns3)ccc2n1Cc1ccccc1C1=CCNCCC1` [Compound 3-5, 2-oxo-3-[2-(2,5,6,7-tetrahydro-1H-azepin-4-yl)benzyl]-N-1,2,4-thiadiazol-5-yl-2,3-dihydro-1,3-benzoxazole-6-sulfonamide]: the “ratio … by IonWorks measurement” value in experiment [1] is more than 133. In addition, the IC50 came out at 248 nM in experiment [2] and 111 nM in experiment [4]. The “ratio … by PatchXpress measurement” value in experiment [3] is more than 271.

Turning to `C[C@H](c1ccccc1)n1c(=O)oc2cc(S(=O)(=O)Nc3ncns3)c(F)cc21` [Compound 13-3, 5-fluoro-2-oxo-3-[(1R)-1-phenylethyl]-N-1,2,4-thiadiazol-5-yl-2,3-dihydro-1,3-benzoxazole-6-sulfonamide], the “ratio … by IonWorks measurement” value in experiment [1] was determined as 418. The values for the IC50 in experiment [2] and in experiment [4] were 21 nM and 42 nM, respectively. In addition, the “ratio … by PatchXpress measurement” value in experiment [3] was 162.

As for `CC(c1ccccc1C(F)(F)F)n1c(=O)oc2cc(S(=O)(=O)Nc3ncns3)ccc21` (centres unmarked) [Compound 4-9, 2-oxo-N-1,2,4-thiadiazol-5-yl-3-{1-[2-(trifluoromethyl)phenyl]ethyl}-2,3-dihydro-1,3-benzoxazole-6-sulfonamide], the “ratio … by IonWorks measurement” value in experiment [1] was 22. The IC50 was 1140 nM in experiment [2] and 2640 nM in experiment [4]. Also, in experiment [3], the “ratio … by PatchXpress measurement” value is more than 11.
